Data published in patent US10028949B2, “Parenteral formulations of lipophilic pharmaceutical agents and methods for preparing and using the same” (priority 2011, dated 2018).
Converted amounts (≈) assume the structure as drawn. “And” between values parts separate entries of the source, which are not always exact repeats. Equal entries are not always repeated. Where two headings read alike, the source gives them in different places. One block for each compound: values may come before it.

What was measured:
[1] = tested on: Mucorales (Rhizopus lab strain); assay: Mold susceptibility test (MIC); format: cell-based; details: Table 4, read-out at 48 hr, range tested 32 ug/ml to 0.03 ug/ml
[2] = tested on: Aspergillus fumigatus (ATCC strain 90906); assay: Mold susceptibility test (MIC, CLSI M38A); format: cell-based; details: Table 4, read-out at 48 hr, range tested 32 ug/ml to 0.03 ug/ml
Source text: To further determine the antifungal activity of the compounds in the new formulation systems the inventors investigated the efficacy of the various agents against additional strains of mucor and Aspergillus (The Rhizomucor was a clinical isolate from a patient isolate) and the Aspergillus fumigatus (ATCC strain 90906) used was as previously described. Again, the susceptibility tests were set-up using the standardized test method (CLSI M38A). The used drugs were provided in the described final use-formulation VE-acetone/PEG/D5W. All drugs were diluted in RPMI-Mops medium: YeastOne, Sensititer (Lot 151416SA, expiration date in 2011).
Briefly, susceptibility tests were set-up using a standardized methodology (CLSI M38A). Drugs were diluted into RPMI-Mops medium (Yeast One Broth (Sensititer, product Y3462, Trek Diagnostic Systems, Cleveland, Ohio) Sensititer Lot number 151416SA—expiration date 2011). Two different strains of […] were tested, the standardized evaluation/read out was performed at 24 hours after the start of each culture. The tests were repeated twice and all MIC values (minimum inhibitory concentration) determined as an average of the two experiments.

[3] = Plasma clearance of Itraconazole and Posaconazole after IV injection in mice; format: in vivo, Swiss Webster mice
Experimental: To avoid analytical interference from endogenous plasma proteins in the chromatogram when assaying Itra and Posa in plasma samples, an extraction/purification step utilizing precipitation of protein material with acetonitrile was performed. Briefly, plasma proteins were precipitated by adding acetonitrile to a final volume ratio plasma:acetonitrile of 1:2. The mixture was vortexed for 30 seconds and centrifuged for 5 min. at 14,000 rpm in an Eppendorff microcentrifuge. The deproteinated supernatant, containing Itra, was injected into the HPLC to determine the drug concentration.

[4] = tested on: Rhizomucor sp. [Lab-Z is derived from patient 041511]; assay: Mold susceptibility test (MIC, CLSI M38A); format: cell-based; details: at 48 hr, in novel solvent
[5] = tested on: Aspergillus fumigatus [LAB-A from patient AF 040 511]; assay: Mold susceptibility test (MIC, CLSI M38A); format: cell-based; details: at 48 hr, in novel solvent

MIC [1]: 0.6 µg/mL (≈ 0.85 µM)
MIC [2]: 0.12 µg/mL (≈ 0.17 µM)
Compound: CCC(C)n1ncn(-c2ccc(N3CCN(c4ccc(OCC5COC(Cn6cncn6)(c6ccc(Cl)cc6Cl)O5)cc4)CC3)cc2)c1=O (stereo not drawn) [Itra/D, itraconazole]

plasma concentration, individual ([3]; 5 mg/kg IV, mice, 10 min): 3860 ng/mL and 3590 ng/mL and 2130 ng/mL
plasma concentration, individual ([3]; 5 mg/kg IV, mice, 30 min): 1930 ng/mL
plasma concentration, individual ([3]; 5 mg/kg IV, mice, 120 min): 770 ng/mL
concentration at 10 min ([3]; Swiss Webster, mouse, plasma, intravenous, 5 mg/kg, 5 mg/kg IV, mice, 10 min, read-out: plasma concentration, individual): 3340 ng/mL
concentration at 10 min ([3]; Swiss Webster, mouse, plasma, intravenous, 5 mg/kg, 5 mg/kg IV, mice, 10 min, read-out: plasma concentration, mean): 3230 ng/mL
concentration at 30 min ([3]; Swiss Webster, mouse, plasma, intravenous, 5 mg/kg, 5 mg/kg IV, mice, 30 min, read-out: plasma concentration, individual): 1310 ng/mL
concentration at 30 min ([3]; Swiss Webster, mouse, plasma, intravenous, 5 mg/kg, 5 mg/kg IV, mice, 30 min, read-out: plasma concentration, mean): 1620 ng/mL
concentration at 60 min ([3]; Swiss Webster, mouse, plasma, intravenous, 5 mg/kg, 5 mg/kg IV, mice, read-out: plasma concentration, individual): 770 ng/mL
concentration at 60 min ([3]; Swiss Webster, mouse, plasma, intravenous, 5 mg/kg, 5 mg/kg IV, mice, read-out: plasma concentration, mean): 770 ng/mL
concentration at 120 min ([3]; Swiss Webster, mouse, plasma, intravenous, 5 mg/kg, 5 mg/kg IV, mice, 120 min, read-out: plasma concentration, individual): 640 ng/mL
concentration at 120 min ([3]; Swiss Webster, mouse, plasma, intravenous, 5 mg/kg, 5 mg/kg IV, mice, 120 min, read-out: plasma concentration, mean): 710 ng/mL
Compound: CCC(C)n1ncn(-c2ccc(N3CCN(c4ccc(OCC5COC(Cn6cncn6)(c6ccc(Cl)cc6Cl)O5)cc4)CC3)cc2)c1=O (stereo not drawn) [Itraconazole, itraconazole]

MIC [1]: 0.12 µg/mL (≈ 0.171 µM)
MIC [2]: 0.03 µg/mL (≈ 0.0428 µM)
Compound: CC[C@@H]([C@H](C)O)n1ncn(-c2ccc(N3CCN(c4ccc(OC[C@@H]5CO[C@@](Cn6cncn6)(c6ccc(F)cc6F)C5)cc4)CC3)cc2)c1=O [Posa/D, posaconazole]

MIC [4]: 0.04 µg/mL (≈ 0.0571 µM)
MIC [5]: 0.04 µg/mL (≈ 0.0571 µM)
plasma concentration ([3]; 5 mg/kg BW in mice, from ten minutes to at least 2 hours after drug injection): 3000 to 5000 ng/mL
plasma concentration, individual ([3]; 5 mg/kg IV, mice, 2.0 hours): 4850 ng/mL and 5030 ng/mL and 4210 ng/mL
plasma concentration, individual ([3]; 5 mg/kg IV, mice, 7.0 hours): 3860 ng/mL
plasma concentration, individual ([3]; 5 mg/kg IV, mice, 24 hours): 30 ng/mL and 560 ng/mL and 470 ng/mL
plasma concentration, individual ([3]; 5 mg/kg IV, mice, 30 hours): 140 ng/mL and 290 ng/mL and 40 ng/mL
concentration at 0.2 hours ([3]; Swiss Webster, mouse, plasma, intravenous, 5 mg/kg, 5 mg/kg IV, mice, 0.2 hours): 3680 ng/mL
concentration at 2 hours ([3]; Swiss Webster, mouse, plasma, intravenous, 5 mg/kg, 5 mg/kg IV, mice, 2.0 hours, read-out: plasma concentration, individual): 4990 ng/mL
concentration at 2 hours ([3]; Swiss Webster, mouse, plasma, intravenous, 5 mg/kg, 5 mg/kg IV, mice, 2.0 hours, read-out: plasma concentration, mean): 4770 ng/mL
concentration at 7 hours ([3]; Swiss Webster, mouse, plasma, intravenous, 5 mg/kg, 5 mg/kg IV, mice, 7.0 hours, read-out: plasma concentration, individual): 2610 ng/mL
concentration at 7 hours ([3]; Swiss Webster, mouse, plasma, intravenous, 5 mg/kg, 5 mg/kg IV, mice, 7.0 hours, read-out: plasma concentration, mean): 3230 ng/mL
concentration at 24 hours ([3]; Swiss Webster, mouse, plasma, intravenous, 5 mg/kg, 5 mg/kg IV, mice, 24 hours): 350 ng/mL
concentration at 30 hours ([3]; Swiss Webster, mouse, plasma, intravenous, 5 mg/kg, 5 mg/kg IV, mice, 30 hours): 160 ng/mL
Compound: CC[C@@H]([C@H](C)O)n1ncn(-c2ccc(N3CCN(c4ccc(OC[C@@H]5CO[C@@](Cn6cncn6)(c6ccc(F)cc6F)C5)cc4)CC3)cc2)c1=O [Posaconazole, posaconazole]
plasma concentration, individual ([3]; 5 mg/kg IV, mice, 0.2 hours): 3430 ng/mL and 1880 ng/mL and 4590 ng/mL and 4820 ng/mL
